Source: US20250186450A1, “COMBINATION THERAPY COMPRISING DGK INHIBITORS and PD-1/PD-L1 INHIBITORS” (Incyte Corporation, priority 2023, published 2025)

What was measured:
DGKα = DGKα (Homo sapiens (Human), UniProt P23743); experiment: In vitro DGKα inhibition assay (ADP-Glo); format: biochemical; details: 0.1 nM DGKα, 50 μM ATP, 20 μM DLG
Protocol: (§1) The DGKα and DGKζ biochemical reactions were performed using His-tagged human recombinant enzymes (Signal Chem, DGKα, #D21-10BH; DGKζ, #D30-10H)) and DLG (Dilauroyl-sn-glycerol) lipid substrate (Signal Chem, #D430-59). ADP-Glo assay was performed using ADP-Glo™ kinase Assay kit (Promega, #V9104). The reactions were carried out in assay buffer containing 40 mM Tris, pH 7.5, 0.1% CHAPS, 0.1% Prionex, 40 mM NaCl, 5 mM MgCl2, 1 mM CaCl2, and 1 mM DTT. DGKα reactions contained 0.1 nM DGKα, 50 μM ATP, and 20 μM DLG. And DGKζ reactions contained 0.4 nM DGKζ, 30 μM ATP, and 20 μM DLG.
(§2) For compound inhibition studies, 40 nL test compound in DMSO was added to wells of white polystyrene plates in 384-well (Greiner, #784075) or 1536-well format (Greiner, #782075). Compounds were added with top concentration of 2 mM with 11 point, 3-fold dilution series. Enzyme solution (contains 2×DGK enzyme concentration in 1× assay buffer) was added to the plate in 2 μL/well volume, followed by 2 μL/well of substrate solution (contains 2× concentration of ATP and DLG substrate in 1× assay buffer). Plates were then centrifuged for 1 min at 1200 RPM and sealed or lidded. For 4 μL reaction volume, test compounds were therefore diluted 100× to final top concentration of 20 μM. After 90 minute incubation, reactions were quenched by addition of 2 μL/well Promega ADP-Glo Reagent, followed by centrifugation and lidding. After 60 min incubation, 2 μL/well Promega Kinase Detection Reagent was added, plates centrifuged, and incubated for 30 min. Plates were then read using Luminescence method on BMG PHERAstar FSX plate reader. Percent inhibition was calculated and IC50s were determined using 4-parameter fit in Genedata Screener. Labcyte Echo acoustic dispenser was used for compound addition, and Formulatrix Tempest liquid handler was used for all reagent dispenses.

DGKζ = DGKζ (Homo sapiens (Human), UniProt Q13574); experiment: In vitro DGKζ inhibition assay (ADP-Glo); format: biochemical; details: 0.4 nM DGKζ, 30 μM ATP, 20 μM DLG
DGKζ, sequence (Q13574 whole entry): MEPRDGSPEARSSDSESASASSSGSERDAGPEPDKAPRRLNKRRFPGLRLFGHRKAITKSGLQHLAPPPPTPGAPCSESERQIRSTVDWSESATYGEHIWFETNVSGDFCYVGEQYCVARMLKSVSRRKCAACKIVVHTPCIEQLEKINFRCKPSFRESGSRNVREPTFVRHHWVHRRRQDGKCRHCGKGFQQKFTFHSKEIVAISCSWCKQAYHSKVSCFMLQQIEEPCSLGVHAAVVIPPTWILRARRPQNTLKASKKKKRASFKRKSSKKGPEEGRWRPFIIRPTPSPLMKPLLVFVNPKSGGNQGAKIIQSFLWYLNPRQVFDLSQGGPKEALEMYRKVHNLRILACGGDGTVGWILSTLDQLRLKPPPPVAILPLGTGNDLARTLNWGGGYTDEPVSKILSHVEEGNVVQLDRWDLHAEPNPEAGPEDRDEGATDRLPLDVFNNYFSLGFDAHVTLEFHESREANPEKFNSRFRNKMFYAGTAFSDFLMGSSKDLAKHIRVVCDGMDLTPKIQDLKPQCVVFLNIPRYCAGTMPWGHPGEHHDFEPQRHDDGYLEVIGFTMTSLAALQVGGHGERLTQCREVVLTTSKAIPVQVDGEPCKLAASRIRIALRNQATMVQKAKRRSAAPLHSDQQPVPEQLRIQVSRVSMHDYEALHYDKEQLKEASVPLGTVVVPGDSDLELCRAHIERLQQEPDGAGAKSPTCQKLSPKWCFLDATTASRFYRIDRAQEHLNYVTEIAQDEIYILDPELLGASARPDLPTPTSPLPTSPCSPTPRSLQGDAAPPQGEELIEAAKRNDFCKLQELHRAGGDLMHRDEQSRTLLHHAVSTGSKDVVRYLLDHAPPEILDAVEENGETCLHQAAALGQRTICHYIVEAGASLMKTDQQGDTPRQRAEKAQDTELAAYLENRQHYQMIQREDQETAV
Protocol: as §1, §2

DGKα, sequence (P23743 whole entry): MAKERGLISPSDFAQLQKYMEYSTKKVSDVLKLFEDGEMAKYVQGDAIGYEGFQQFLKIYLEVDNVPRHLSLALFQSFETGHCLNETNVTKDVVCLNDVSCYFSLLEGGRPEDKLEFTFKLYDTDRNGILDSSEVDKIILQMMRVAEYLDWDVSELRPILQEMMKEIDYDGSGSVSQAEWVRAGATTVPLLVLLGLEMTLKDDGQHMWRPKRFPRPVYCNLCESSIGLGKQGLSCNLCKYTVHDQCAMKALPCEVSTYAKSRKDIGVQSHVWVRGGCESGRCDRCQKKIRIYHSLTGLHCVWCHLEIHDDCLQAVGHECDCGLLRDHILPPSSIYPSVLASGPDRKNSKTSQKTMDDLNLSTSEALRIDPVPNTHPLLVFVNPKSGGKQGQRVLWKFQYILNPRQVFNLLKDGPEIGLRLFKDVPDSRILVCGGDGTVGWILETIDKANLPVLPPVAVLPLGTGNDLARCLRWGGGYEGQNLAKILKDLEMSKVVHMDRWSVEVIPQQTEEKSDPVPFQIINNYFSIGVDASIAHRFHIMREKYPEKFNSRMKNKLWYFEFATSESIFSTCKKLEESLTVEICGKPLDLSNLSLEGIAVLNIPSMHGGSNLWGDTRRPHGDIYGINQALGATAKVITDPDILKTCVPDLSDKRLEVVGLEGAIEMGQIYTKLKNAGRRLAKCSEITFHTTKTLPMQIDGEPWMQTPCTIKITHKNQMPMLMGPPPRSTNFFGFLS

| SMILES | IC50 (DGKα) | IC50 (DGKζ) |
| --- | --- | --- |
| Cc1nc2c(N3C[C@@H](C)N(C(CC(C)C)c4ccc(Cl)c(F)c4)C[C@@H]3C)nc3nncn3c2n1C[C@@H]1CCCO1 (single isomer, unassigned) [Example 11] | ≤ 20 nM | ≤ 20 nM |
| Cc1nc2c(N3C[C@@H](C)N(C(c4ccc(C(F)(F)F)cc4)C4CC(F)(F)C4)C[C@@H]3C)cc3nncn3c2n1C[C@@H]1CCCO1 (single isomer, unassigned) [Example 17] | ≤ 20 nM | ≤ 20 nM |
| C[C@@H]1CN(c2cc3nncn3c3c2ncn3C[C@@H]2CCCO2)[C@@H](C)CN1C(c1ccc(Cl)cc1)[C@@H]1CC1(F)F (single isomer, unassigned) [Example 18] | ≤ 20 nM | 20 to 200 nM |
| CC[C@@H]1CN(c2cc3nncn3c3c2nc(C)n3C[C@@H]2CCCO2)[C@@H](C)CN1C(c1ccc(Cl)cc1)C1CC(F)(F)C1 (single isomer, unassigned) [Example 19] | ≤ 20 nM | ≤ 20 nM |
| C[C@@H]1CN(c2cc3nncn3c3c2ncn3C[C@@H]2CCCO2)[C@@H](C)CN1C(c1ccc(Cl)cc1)C1CC(F)(F)C1 (single isomer, unassigned) [Example 22] | ≤ 20 nM | ≤ 20 nM |
| Cc1nc2c(N3C[C@@H](C)N(C(c4ccc(Cl)cc4)C4CC(F)(F)C4)C[C@@H]3C)cc3nncn3c2n1C[C@@H]1CCCO1 (single isomer, unassigned) [Example 23] | ≤ 20 nM | ≤ 20 nM |
| Cc1nc2c(N3C[C@@H](C)N(C(c4ccc(Cl)cc4)c4ccc(Cl)cc4)C[C@@H]3C)nc3nncn3c2n1C[C@@H]1CCCO1 [Example 5, 4-((2S,5R)-4-(Bis(4-chlorophenyl)methyl)-2,5-dimethylpiperazin-1-yl)-2-methyl-1-(((S)-tetrahydrofuran-2-yl)methyl)-1H-[1,2,4]triazolo[3,4-b]purine] | ≤ 20 nM | ≤ 20 nM |
| C[C@@H]1CN(c2nc3nncn3c3c2ncn3C[C@@H]2CCCO2)[C@@H](C)CN1C(c1ccc(Cl)cc1)C1CC(F)(F)C1 (stereo partly drawn) [Example 12, 4-((2S,5R)-4-((4-Chlorophenyl)(3,3-difluorocyclobutyl)methyl)-2,5-dimethylpiperazin-1-yl)-1-(((S)-tetrahydrofuran-2-yl)methyl)-1H-[1,2,4]triazolo[3,4-b]purine] | ≤ 20 nM | ≤ 20 nM |
| CC[C@@H]1CN(c2nc3nncn3c3c2ncn3C[C@@H]2CCCO2)[C@@H](C)CN1C(c1ccc(Cl)cc1)C1CC(F)(F)C1 (stereo partly drawn) [Example 13, 4-((2S,5R)-4-((4-Chlorophenyl)(3,3-difluorocyclobutyl)methyl)-5-ethyl-2-methylpiperazin-1-yl)-1-(((S)-tetrahydrofuran-2-yl)methyl)-1H-[1,2,4]triazolo[3,4-b]purine] | ≤ 20 nM | ≤ 20 nM |
| Cc1nc2c(N3C[C@@H](C)N(Cc4ccc(C(F)(F)F)cc4F)C[C@@H]3C)nc3nncn3c2n1C[C@@H]1CCCO1 [Example 14, 4-((2S,5R)-4-(2-Fluoro-4-(trifluoromethyl)benzyl)-2,5-dimethylpiperazin-1-yl)-2-methyl-1-(((S)-tetrahydrofuran-2-yl)methyl)-1H-[1,2,4]triazolo[3,4-b]purine] | ≤ 20 nM | ≤ 20 nM |

Now from value to compound:

| IC50 (DGKα) | IC50 (DGKζ) | SMILES |
| --- | --- | --- |
| ≤ 20 nM | ≤ 20 nM | Cc1nc2c(N3C[C@@H](C)N(C(c4ccc(F)c(Cl)c4)C4CC(F)(F)C4)C[C@@H]3C)nc3nncn3c2n1C[C@@H]1CCCO1 (single isomer, unassigned) [Example 3] |
| ≤ 20 nM | ≤ 20 nM | Cc1nc2c(N3C[C@@H](C)N(C(c4ccc(Cl)c(F)c4)C4CC(F)(F)C4)C[C@@H]3C)nc3nncn3c2n1C[C@@H]1CCCO1 (single isomer, unassigned) [Example 4] |
| ≤ 20 nM | ≤ 20 nM | C[C@@H]1CN(c2nc3nncn3c3c2ncn3C[C@@H]2CCCO2)[C@@H](C)CN1C(c1ccc(C(F)(F)F)cc1)C1CC(F)(F)C1 (single isomer, unassigned) [Example 6] |
| ≤ 20 nM | ≤ 20 nM | C[C@@H]1CN(c2nc3nncn3c3c2ncn3C[C@@H]2CCCO2)[C@@H](C)CN1C(c1ccc(Cl)cc1)[C@@H]1CC1(F)F (single isomer, unassigned) [Example 7] |
| ≤ 20 nM | ≤ 20 nM | C[C@@H]1CN(c2nc3nncn3c3c2ncn3C[C@@H]2CCCO2)[C@@H](C)CN1C(c1ccc(Cl)cc1)[C@H]1CC1(F)F (single isomer, unassigned) [Example 8] |
| ≤ 20 nM | ≤ 20 nM | Cc1nc2c(N3C[C@@H](C)N(C(c4ccc(Cl)cc4)[C@@H]4CC4(F)F)C[C@@H]3C)nc3nncn3c2n1C[C@@H]1CCCO1 (single isomer, unassigned) [Example 9] |
| ≤ 20 nM | ≤ 20 nM | CC(C)CC(c1ccc(Cl)cc1)N1C[C@H](C)N(c2nc3nncn3c3c2ncn3C[C@@H]2CCCO2)C[C@H]1C (single isomer, unassigned) [Example 10] |
